Results on four compounds are retold here after patent US6150393A (priority 1999, dated 2000).

Molecules are shown by their SMILES.

A short description of data set [1]: Bar catalepsy test in rats (extrapyramidal side effect analysis). In kind it is in vivo, rat (male Sprague-Dawley).
For data set [2], the system named is human 5HT2A receptor compared with human 5HT2C receptor. Put plainly: Selectivity for 5HT2A over 5HT2C receptor (as measured by IC50 values). In kind it is binding.
The subject of data set [3] is human mutated 5HT2A receptor, AP-3. The experiment in a line: Receptor-mediated inositol phosphate (IP3) accumulation, AP-3. In kind it is cell-based. The protocol: On day one, 1×10^7 293 cells per 150 mm plate were plated out. On day two, two reaction tubes were prepared (the proportions to follow for each tube are per plate): tube A was prepared by mixing 20 μg DNA (e.g., pCMV vector; pCMV vector AP-1 cDNA, etc.) in 1.2 ml serum free DMEM (Irvine Scientific, Irvine, Calif.); tube B was prepared by mixing 120 μl lipofectamine (Gibco BRL) in 1.2 ml serum free DMEM. Tubes A and B were then admixed by inversions (several times), followed by incubation at room temperature for 30-45 min. The admixture is referred to as the "transfection mixture". Plated 293 cells were washed with 1×PBS, followed by addition of 10 ml serum free DMEM. 2.4 ml of the transfection mixture was then added to the cells, followed by incubation for 4 hrs at 37° C./5% CO2. On day 3, cells were trypsinized and counted, followed by plating of 1×10^6 cells/well (poly D-lysine treated 12-well plates). Cells were permitted to adhere to the wells, followed by one wash with 1×PBS. Thereafter, 0.5 μCi ^3 H-inositol in 1 ml inositol-free DMEM was added per well. Protocol B.
On day 4, the cells were washed with 0.5 ml PBS and then 0.45 ml of assay medium was added containing inositol-free/serum free media, 10 μM pargyline, 10 mM lithium chloride, or 0.4 ml of assay medium and 50 ul of 10× ketanserin (ket) to a final concentration of 10 μM. The cells were then incubated for 30 minutes at 37° C. Then the cells were washed with 0.5 ml PBS and 200 ul of fresh/ice cold stop solution (1M KOH; 18 mM Na-borate; 3.8 mM EDTA) was added/well. The solution was kept on ice for 5-10 minutes or until the cells were lysed and then neutralized by 200 μl of fresh/ice cold neutralization sol. (7.5% HCL). The lysate was then transferred into 1.5 ml microcentrifuge tubes and 1 ml of chloroform/methanol (1:2) was added/tube. The solution was vortexed for 15 seconds and the upper phase was applied to a Biorad AG1-X8 anion exchange resin (100-200 mesh). The resin was washed with water and 0.9 ml of the upper phase was loaded onto the column. The column was washed with 10 mls of 5 mM myo-inositol and 10 ml of 5 mM Na-borate/60 mM Na-formate. The inositol trisphosphates were eluted into scintillation vials containing 10 ml of scintillation cocktail with 2 ml of 0.1 M formic acid/1 M ammonium formate. The columns were regenerated by washing with 10 ml of 0.1 M formic acid/3M ammonium formate and rinsed twice with dd H2 O and stored at room temperature in water.
Candidate compound identified in the assays of Examples 9a-9c were then evaluated for inositol phosphate accumulation, following the protocol of Example 5 ([…] expressing human mutated 5HT2A receptor, AP-3), modified as follows: tube A was prepared by mixing 16 μg DNA (e.g., pCMV vector; pCMV vector AP-1 cDNA, etc.) in 1.0 ml serum free DMEM (Irvine Scientific, Irvine, Calif.); tube B was prepared by mixing 60 μl lipofectamine (Gibco BRL) in 1.0 ml serum free DMEM. Tubes A and B were then admixed by inversions (several times), followed by incubation at room temperature for 30 min. The admixture is referred to as the "transfection mixture". Plated 293 cells were washed with 10 ml Serum Free DMEM, followed by addition of 11 ml Serum Free DMEM. 2.0 ml of the transfection mixture was then added to the cells, followed by incubation for 5 hrs at 37° C./5% CO2. On day 3, cells were trypsinized and counted, followed by plating of 1×10^6 cells/well (12-well plates). Cells were permitted to adhere to the wells for 8 hrs, followed by one wash with 1×PBS. Thereafter, 0.5 μCi ^3 H-inositol in 1 ml inositol-free DMEM was added per well.
On day 4, the cells were washed with 1.5 ml PBS and then 0.9 ml of assay medium was added containing inositol-free/serum free media, 10 μM pargyline, 10 mM lithium chloride, for 5 min in 37° C./5% CO2 followed by 100 μl addition of candidate compound diluted in the same material. The cells were then incubated for 120 minutes at 37° C. […]

For data set [4], the system named is 5HT2 receptors. Put plainly: DOI inhibition study in rats, oral administration of test compound (oral availability). In kind it is in vivo, rat. The protocol:
(§1) FIG. 6 provides a graphic summary of the effects of oral administration of 116082 and 116081 in a DOI inhibition study in rats. Values represent the mean±SEMs (n=6/group). #P<0.05 vs. vehicle/vehicle, *P<0.05 vs. vehicle/DOI, Student t-test.
(§2) Based upon the in vivo data developed, oral bioavailability of compounds […] was considered. The compounds were administered by oral gavage at a dose of 50 mg/kg, 30 min prior to DOI in rats (see Example 11A, supra). Animals were placed in the locomotor activity cages 10 min after DOI administration and activity was measured for 10 min. Results, presented in FIG. 6, provide total activity counts over the 10 min of exposure to the locomotor activity apparatus.

Experiment in data set [5]: as above
In kind it is in vivo, rat. The following applies: in vivo; rat; 50 mg/kg oral vs 10 mg/kg i.p., inferred from DOI test. The protocol:
as §1, §2

For data set [6], the system named is 5HT2 receptors. The experiment in a line: DOI locomotor activity test in rats (DOI inhibition study), intraperitoneal test compound. In kind it is in vivo, rat (male Sprague-Dawley). The following applies: i.p. 30 min before DOI (0.3 mg/kg s.c.). As for the experimental part:
FIG. 3 provides a graphic summary of dose-response results from in vivo analysis of compound 116082 in a 1-(2,5-dimethoxy-4-iodophenyl)-2-aminopropane ("DOI") inhibition study (fine movement; ambulation; and animal rearing outcome measures). 116082 was administered 30 min prior to DOI. Animals were placed in locomotor activity cages 10 min after DOI administration and activity was measured for 10 min. Results are presented as total activity counts over the 10 min of exposure to the locomotor activity apparatus.
FIG. 4 provides a graphic summary of dose-response results from in vivo analysis of compound 116081 in a DOI inhibition study (fine movement; ambulation; and animal rearing outcome measures). 116081 was administered 30 min prior to DOI. Animals were placed in locomotor activity cages 10 min after DOI administration and activity was measured for 10 min. Results are presented as total activity counts over the 10 min of exposure to the locomotor activity apparatus.
Assessment of 5-HT2 receptor antagonism in vivo was made by using the DOI locomotor activity test in rats as described by Krebs-Thomson (Psychopharmacology, 140:69-74, 1998).
Motor function was assessed by using automated locomotor activity cages. The rats were placed in a standard rodent cage surrounded by photocell beams, which allow for automated recording of motor activity. […]

Data set [7] concerns 5HT2 receptors. The following applies: peripheral administration, 0.3 mg/kg; cited from earlier work.
The conditions of data set [8]: rodents; cited from earlier work.
Data set [9] is classed as in vivo, rat (male Sprague-Dawley). The following applies: i.p.; total activity counts over 120 min after MK-801. The protocol:
FIG. 7 provides a graphic summary of the reversal of MK-801-induced hyperactivity using 116081 (7A) and clozapine (7B). […] 116081 produced a significant reversal of the effect of MK-801 at a dose of 25 μmol/kg (10 mg/kg). Results are presented as total activity counts over the 120 min of exposure to the locomotor activity apparatus after administration of MK-801. Data (mean±SEM) were analyzed by ANOVA followed by Dunnett's test (n=6-8/group).
Because part of the symptomatology of schizophrenia may be related to altered glutamate transmission at the NMDA receptor, the reversal of MK-801-induced hyperlocomotor activity in rodents has been used routinely as an animal model for detecting potential antipsychotic activity (O'Neill et al., Pharmacology Biochem. Behav., 63: 237-243, 1999). Thus, this test was used to determine potential antipsychotic properties of 116081 in vivo.
Motor activity was assessed using automated locomotor activity cages as described above (Example 11(A), supra.). Male Sprague-Dawley rats (250-350 g body weight) were administered test compounds (i.p.) and placed in the locomotor activity cages for 30 min of habituation. Following habituation,animals were administered MK-801 (0.5 μmol/kg=0.17 mg/kg, s.c.) and then immediately placed back into the locomotor activity cages, and activity was measured for 120 min. A reversal of MK-801-induced motor activity (as shown by a significant […] of ambulation) in rats is considered to be predictive of the ability of the test compound to reverse psychotic symptoms.

What is called bioavailability is dose-corrected exposure relative to a reference, in per cent. The low end stands for poor availability, the high end for good availability. For the compound `Cn1cc(Br)c(-c2cccc(NC(=O)Nc3ccc(F)cc3)c2)n1` [Compound 116082, {[3-(4-bromo-1-methylpyrazol-3-yl)phenyl]amino}-N-(4-fluorophenyl)carboxamide], in [1] (at a dose 8 times greater than the dose required to block 5HT2A receptors in vivo), the extra-pyramidal side effects result is recorded as “does not induce extra-pyramidal side effects in rats”. The induction of catalepsy entry in data set [1] (i.p., 10 to 80 mg/kg) is on record as “does not induce catalepsy in rats”. The “time spent on the bar” value in [1] (i.p., 10 to 80 mg/kg, 60 min before test) is “did not induce a dose-dependent increase in time spent on the bar”. In addition, the selectivity ratio in [1] (rat, in vivo, ip, bar test versus DOI test, rats, read-out: dose without extra-pyramidal side effects relative to dose required to block 5HT2A receptors in vivo) was 8. In [2], the “selectivity preference for the 5HT2A receptor compared with the 5HT2C receptor” value was 100 fold. In addition, the “IP3 % of Control” value in data set [3] (10 μM test compound, triplicate, control without test compound) was found to be 11%. Besides, the “profile in in vitro functional assays” value in data set [3] (in vitro functional assays) is “selective 5HT2A inverse agonist properties”. For the same compound, the “oral efficacy compared with intraperitoneal administration” value in [4] (50 mg/kg oral vs 10 mg/kg i.p.) is “as efficacious as a 10 mg/kg dose of the same compounds administered intraperitoneally”. The “reversal of DOI-induced motor dysfunction, oral” value in [4] (oral gavage 50 mg/kg, 30 min prior to DOI) is “reversed DOI-induced motor dysfunction in rats”. Besides, the oral activity entry in data set [4] (rat, DOI test, 50 mg/kg oral) was “orally active”. In [5], this compound gave a bioavailability of at least 20%. The “reversal of DOI-induced motor dysfunction” value in data set [6] is listed as “beneficially reverses DOI-induced motor dysfunction”.
For `COc1cc(CC(C)N)c(OC)cc1I` (stereo not drawn) [DOI, 1-(2,5-dimethoxy-4-iodophenyl)-2-aminopropane], the “motor function effect of DOI alone” value in [7] is listed as “produces motor dysfunction in rats as shown by a decrease in ambulation”.
Turning to `C[C@]12N[C@H](Cc3ccccc31)c1ccccc12` [MK-801], the “effect of MK-801 alone on locomotor activity and stereotypy” value in data set [8] is “induces significant increases in locomotor activity and stereotypy”.
With `CN1CCN(C2=Nc3cc(Cl)ccc3Nc3ccccc32)CC1` [clozapine, reference compound], the “attenuation of MK-801-induced hyperactivity (ambulations)” value in data set [9] is “dose-dependently attenuated MK801-induced hyperactivity”.
